In ChEMBL document CHEMBL1121704, “Fluorinated retinoic acids and their analogues. 2. Synthesis and biological activity of aromatic 4-fluoro analogues” (1981):

Key:
Assay type in all cases: functional
Mus musculus [1] = assay: In vivo anti-papilloma activity against chemically induced skin papillomas in mice at dose of 80(mg/kg)/day
Mus musculus [2] = assay: In vivo anti-papilloma activity against chemically induced skin papillomas in mice at dose of 20(mg/kg)/day
Mus musculus [3] = assay: In vivo anti-papilloma activity against chemically induced skin papillomas in mice at dose of 40 mg/kg/day
Mus musculus [4] = species on record: Mus musculus; assay: Hypervitaminosis dose determined as a measure of toxicity
Mus musculus [5] = assay: In vivo anti-papilloma activity against chemically induced skin papillomas in mice at dose of 5(mg/kg)/day
Mus musculus [6] = assay: In vivo anti-papilloma activity against chemically induced skin papillomas in mice at dose of 10 mg/kg/day

Structure (SMILES)	Antipapilloma activity (Mus musculus [1]) [%]	Antipapilloma activity (Mus musculus [2]) [%]	Antipapilloma activity (Mus musculus [3]) [%]	Dose (Mus musculus [4]) [mg/kg/day]	Antipapilloma activity (Mus musculus [5]) [%]	Antipapilloma activity (Mus musculus [6]) [%]
CCOC(=O)/C=C(C)/C(F)=C/C=C(C)/C=C/c1c(C)cc(C)c(Cl)c1C	-64	-29	-34	>200		
CCOC(=O)/C=C(C)/C(F)=C/C=C(C)/C=C/c1c(Cl)cc(OC)c(C)c1Cl				25	-58	
CCOC(=O)/C=C(C)/C(F)=C/C=C(C)/C=C/c1c(C)cc(OC)c(C)c1Cl		-73		50		
CCOC(=O)/C=C(C)/C(F)=C/C=C(C)/C=C/c1c(C)cc(OC)c(C)c1C	-82	-62	-69	50	-43	-76
CCOC(=O)/C=C(C)/C(F)=C/C=C(C)/C=C/c1c(Cl)cc(OC)c(C)c1C		-59		50	-41	-60
CCOC(=O)/C=C(C)/C=C/C=C(C)/C=C/c1c(C)cc(OC)c(C)c1C [ETRETINATE]	-47	-29	-33	100		9
